{"source": "paper PMC11503492", "about": "“Activity-Based DNA-Encoded Library Screening for Selective Inhibitors of Eukaryotic Translation” (ACS Central Science, 2024)", "key": {"[1]": {"system": "PCSK9[1:33]-GFP translation", "assay": "Microfluidic activity-based DEL screen in WG IVTT droplets, PCSK9[1:33]-GFP, hit k class by sequencing", "format": "biochemical, wheat germ", "conditions": "number of times hit structure observed on distinct beads, summed across PCSK9[1:33]-GFP screens; *** p < 0.001, NS not significant", "protocol": "(§1) The validated PF846-inspired library was screened to discover novel translation inhibitors. DEL beads were encapsulated in microfluidic droplets of WG IVTT and irradiated with UV in flow to liberate DEL members into the droplets. The photodosed droplets were incubated and sorted based on fluorescence.[25] PCSK9[1:33]-GFP was chosen as a proof-of-concept target, and PCSK9-FS[1:33]-GFP was used as a counter screen target to identify nonselective compounds. PC-HygB were mixed with DEL beads and screened in the microfluidic device for inhibitors of translation. […] Droplet generation, bead introduction, and library and control bead hit rate were uniform during the screen (Figure 3, bottom).\n(§2) Hit collection DNA tags from the PCSK9[1:33]-GFP and PCSK9-FS[1:33]-GFP screens were sequenced to deduce the structures of molecules that inhibited PCSK9[1:33]- or PCSK9-FS[1:33]-GFP translation. Hit structure k class, the number of times a given hit structure is observed on distinct beads,[31] was summed across screens and visualized as a heat map (Figure 4A). […] The combined hit sets for the two templates contained 121 unique hits with k ≥ 17 across the two screening campaigns. The most frequently observed cycle 1 starter BBs were 1 and 2, which share an 8-methylisoquinoline moiety, but differ in the vector for cycle 2 carboxylic acid connection, and 3, which contains an N-methylazaindole moiety. The most frequently identified cycle 2 tails included carboxylic acids 4–7. […] Substituted pyrazole 6 and pyridyl-benzimidazole 7 also appeared frequently with the aforementioned starters. There were 5 hits that appeared with high k class in both PCSK9[1:33]-GFP and PCSK9[1:33]-FS-GFP screening campaigns.\n(§3) 319 the droplet experiment to homogenize the bead suspension. Syringes were connected to\n(§4) 320 fluidic inputs with microbore Tygon tubing (0.01” x 0.03” IC × OD). Droplet generation oil\n(§5) 321 (OIL1) was 1% picosurf in HFE. Spacing (OIL2) and pinning (OIL3) oils were neat HFE.\n(§6) 322 Assay reagents were driven by displacement syringe pumps (Legato 100, KD Scientific,\n(§7) 323 Holliston, MA) through the circuit. OIL2 and OIL3 were initially flowed (22 µL/min and\n(§8) 324 12 µL/min, respectively) and hit and waste shunt tubing were clamped to backfill the\n(§9) 325 circuit. Once the incubator was filled with oil, the hit and waste tubing were unclamped\n(§10) 326 and back shunts were clamped. AQ1, AQ2, and OIL1 flows were initiated (960 nL/min,\n(§11) 327 640 nL/min, and 1200 nL/min, respectively) and held constant during the screen. Once\n(§12) 328 droplet generation equilibrated (∼10 min), the main shunt was clamped and droplets\n(§13) 329 started to fill the incubator. When droplets filled the incubator and entered the sorting\n(§14) 330 region, data acquisition and screening was initiated.\n(§15) 331 The custom confocal LIF detection setup and LabView code were previously described.S3\n(§16) 332 Briefly, photon counting PMTs (H7828, Hamamatsu, Middlesex, NJ) were used to detect\n(§17) 333 droplet fluorescence emission using a custom two-channel (520 and 570 nm) confocal mi-\n(§18) 334 croscope with laser excitation (488 nm, 20 mW, OBIS-488 20LS, Coherent Inc., Santa Clara,\n(§19) 335 CA). A data acquisition board (DAQ, NI, USB-6341, National Instruments) was used to\n(§20) 336 digitize PMT signal, which was binned into counts, and in-house LabView code was used\n(§21) 337 to control acquisition and execute droplet sorting decisions. Signal was smoothed in real-\n(§22) 338 time using median-filter smoothing (width = 3). Droplets were identified by the 570 nm\n(§23) 339 channel signal and the maximum signal in the 520 nm channel (max = countsn-1 when\n(§24) 340 countsn <countsn-1) was set as the droplet peak value. A roaming sort threshold was\n(§25) 342 the 520 nm channel. The threshold was calculated as µ - 5σ, where µ andσ were the mean\n(§26) 343 and standard deviation of the previous 300 droplets’ fluorescence values, respectively. Hit\n(§27) 344 droplets were not included in the calculation of droplet mean and standard deviation. A […]"}, "[2]": {"system": "PCSK9[1:33]-GFP translation", "assay": "Wheat germ lysate (WG) IVTT microplate activity assay, PCSK9[1:33]-GFP template", "format": "biochemical", "conditions": "WG IVTT; for IC50: PCSK9[1:33]-GFP template, triplicate, ± standard deviation of the mean", "excerpt": "(§28) A commercially available wheat germ lysate (WG) IVTT system was employed to assay translation inhibition. Translation activity was detected via a GFP reporter, and the assay was miniaturized to picoliter-scale microfluidic droplets (Figure 1A,B). […] PCSK9 and RPL27 were truncated to the first 33 and 32 amino acids, respectively (PCSK9[1:33] and RPL27[1:32]). The sequences contain distinct PF846 stall sites and were both fused to a GFP reporter. The GFP reporter and a frameshift mutant of PCSK9[1:33] (PCSK9-FS[1:33]), which mutates the nascent chain sequence while maintaining a nearly identical mRNA sequence, were included as negative controls.[13] […] Sequence sensitivity was further confirmed by an N-terminal deletion series of PCSK9[1:33]-GFP; deletion of N-terminal residues increasingly ablated PCSK9[1:33]-GFP translation sensitivity to PF846 (Figure 1D). The WG IVTT assay was miniaturized using a previously described microfluidic circuit modified for longer incubation times (Figure S1)[27] using PF846 as a positive control compound, and assay statistical quality was calculated (Z′=0.7) (Figure 1E). To confirm detection of translation inhibition from library beads, hygromycin B, a nonselective aminoglycoside translation inhibitor, was coupled to beads displaying a photocleavable linker (PC-HygB). UV irradiation releases hygromycin from the bead, allowing it to interact with the WG IVTT assay in the droplet. PC-HygB bead photocleavage supernatant inhibited PCSK9[1:33]-GFP translation both in a microplate assay and in microfluidic droplets (Figure 1F,G, S2). Assay statistical quality using PC-HygB positive control beads was similarly calculated (Z′ = 0.75, Figure 1H). […]\n(§29) 436 Microplate IVTT Assays\n(§30) 437 Wheat germ lysate IVTT plate assays were prepared as 5 µL reactions. Wheat germ lysate\n(§31) 438 (3 µL) was added to test compound or vehicle control (1 µL) in a 384-well black microplate\n(§32) 439 and the reaction was incubated (10 min, RT). Template (1 µL) was added and reaction\n(§33) 440 progress was immediately monitored (λex = 480 nm, λem = 530 nm, 27 °C, 2 h). Rela-\n(§34) 441 tive activity was calculated using the slope of fluorescence increase over time (at 15–30\n(§35) 442 min post reaction initiation) for compound samples relative to that of the DMSO vehicle\n443 control. […]"}, "[3]": {"system": "PCSK9-FS[1:33]-GFP translation", "assay": "Microfluidic activity-based DEL counter screen in WG IVTT droplets, PCSK9-FS[1:33]-GFP, hit k class by sequencing", "format": "biochemical, wheat germ", "conditions": "number of times hit structure observed on distinct beads, summed across PCSK9-FS[1:33]-GFP screens; *** p < 0.001, NS not significant", "protocol": "as §1, §2, §3, §4, §5, §6, §7, §8, §9, §10, §11, §12, §13, §14, §15, §16, §17, §18, §19, §20, §21, §22, §23, §24, §25, §26, §27"}, "[4]": {"system": "PCSK9-FS[1:33]-GFP translation", "assay": "WG IVTT microplate activity assay, PCSK9-FS[1:33]-GFP frameshift counter template", "format": "biochemical, wheat germ", "conditions": "for IC50: PCSK9-FS[1:33]-GFP template, triplicate, undetectable IC50 marked >300; for activity on PCSK9-FS[1:33]-GFP translation (in words): frameshift control", "excerpt": "as §28, §29, §30, §31, §32, §33, §34, §35\n443 control. All microplate experiments contained 25 ng/µL plasmid, except for assays with\n445 respectively. HeLa lysate IVTT plate assays were prepared as 5.5 µL reactions. […]"}}, "data": [{"smiles": "Cc1cccc2ccnc(N(C(=O)[C@H]3CCCN(C(=O)c4ccc(-c5cnco5)cc4)C3)[C@@H]3CCCNC3)c12", "note": "[Compound 10, (S)-N-(8-methylisoquinolin-1-yl)-1-(4-(oxazol-5-yl)benzoyl)-N-((R)-piperidin-3-yl)piperidine-3-carboxamide]", "values": [{"measurement": "k class PCSK9", "setting": "[1]", "value": 34}, {"measurement": "inhibition of PCSK9[1:33]-GFP translation (in words)", "setting": "[2]", "value": "modestly inhibited"}, {"measurement": "IC50", "setting": "[2]", "value": "6 ± 0.2", "unit": "µM"}, {"measurement": "k class PCSK9-FS", "setting": "[3]", "value": 3}, {"measurement": "IC50", "setting": "[4]", "value": "> 300", "unit": "µM"}, {"measurement": "activity on PCSK9-FS[1:33]-GFP translation (in words)", "setting": "[4]", "value": "minimal activity"}]}, {"smiles": "Cc1c(C(=O)N2CCC(C(=O)N(c3nccc4cccc(C)c34)[C@@H]3CCCNC3)CC2)[nH]c2c1C(=O)CCC2", "note": "[Compound 11]", "values": [{"measurement": "k class PCSK9", "setting": "[1]", "value": 38}, {"measurement": "inhibition of PCSK9[1:33]-GFP translation (in words)", "setting": "[2]", "value": "similarly active on both templates"}, {"measurement": "IC50", "setting": "[2]", "value": "19.1 ± 0.5", "unit": "µM"}, {"measurement": "k class PCSK9-FS", "setting": "[3]", "value": 10}, {"measurement": "IC50", "setting": "[4]", "value": "31 ± 1", "unit": "µM"}, {"measurement": "activity on PCSK9-FS[1:33]-GFP translation (in words)", "setting": "[4]", "value": "similarly active on both templates"}]}, {"smiles": "Cc1cccc2ccnc(N(C(=O)C3CCN(C(=O)C#CC4(O)CCOCC4)CC3)[C@@H]3CCCNC3)c12", "note": "[Compound 12]", "values": [{"measurement": "k class PCSK9", "setting": "[1]", "value": 31}, {"measurement": "inhibition of PCSK9[1:33]-GFP translation (in words)", "setting": "[2]", "value": "similarly active on both templates"}, {"measurement": "IC50", "setting": "[2]", "value": "44 ± 4", "unit": "µM"}, {"measurement": "k class PCSK9-FS", "setting": "[3]", "value": 3}, {"measurement": "IC50", "setting": "[4]", "value": "27 ± 2", "unit": "µM"}, {"measurement": "activity on PCSK9-FS[1:33]-GFP translation (in words)", "setting": "[4]", "value": "similarly active on both templates"}]}, {"smiles": "Cc1cccc2ccnc(N(C(=O)[C@H]3CCCN(C(=O)c4ccc(N5CCCC5)nc4)C3)[C@@H]3CCCNC3)c12", "note": "[Compound 13]", "values": [{"measurement": "k class PCSK9", "setting": "[1]", "value": 39}, {"measurement": "inhibition of PCSK9[1:33]-GFP translation (in words)", "setting": "[2]", "value": "modestly inhibited"}, {"measurement": "IC50", "setting": "[2]", "value": "11.2 ± 0.5", "unit": "µM"}, {"measurement": "k class PCSK9-FS", "setting": "[3]", "value": 4}, {"measurement": "IC50", "setting": "[4]", "value": "> 300", "unit": "µM"}, {"measurement": "activity on PCSK9-FS[1:33]-GFP translation (in words)", "setting": "[4]", "value": "minimal activity"}]}, {"smiles": "Cc1cccc2ccnc(N(C(=O)C3CCN(C(=O)c4ccc5nc(-c6ccncc6)[nH]c5c4)CC3)[C@@H]3CCCNC3)c12", "note": "[Compound 14]", "values": [{"measurement": "k class PCSK9", "setting": "[1]", "value": 53}, {"measurement": "inhibition of PCSK9[1:33]-GFP translation (in words)", "setting": "[2]", "value": "similarly active on both templates"}, {"measurement": "IC50", "setting": "[2]", "value": "11.4 ± 0.4", "unit": "µM"}, {"measurement": "k class PCSK9-FS", "setting": "[3]", "value": 17}, {"measurement": "IC50", "setting": "[4]", "value": "7.7 ± 0.1", "unit": "µM"}, {"measurement": "activity on PCSK9-FS[1:33]-GFP translation (in words)", "setting": "[4]", "value": "similarly active on both templates"}]}]}
